These results are taken from patent US20230347344A1, “COMBINATION OF PHARMACOLOGICAL AND MICROFLUIDIC FEATURES FOR IMPROVED PLATELETS PRODUCTION” (HEMOSTOD SA, priority 2015, published 2023).

Assay [1] has as its system platelets produced from megakaryocytes. Nature of the assay: Flow cytometry analysis of platelet receptors (CD41, CD42b, CD61, CD49b) on produced platelets. The class given is cell-based, human. To be noted: for proportion of CD41+/CD42b+ platelet: compound during 2 hours of perfusion, without or with previous introduction during culture stage; for proportion of platelets expressing CD42b receptor: compound in megakaryocyte suspension during 2 h perfusion vs without (10 μM ROCK inhibitor; 25 μM GM6001). As for the experimental part:
(§1) CD34^+ cells were isolated from human umbilical cord blood (UCB) by an immunomagnetic technique (Miltenyi Biotec, Paris, France) as previously reported (see Poirault-Chassac et al, “Notch/Delta4 signaling inhibits human megakaryocytic terminal differentiation”, Blood, vol. 116, no 25, p. 5670-5678, 2010). These blood samples were obtained after informed consent and approval from our Institute Ethics Committee and in accordance with the Declaration of Helsinki. CD34^+ cells were cultured in a humid atmosphere at 37° C. in 5% CO2 in complete medium consisting of Iscove modified Dulbecco medium (IMDM; Gibco Life Technologies, Saint-Aubin, France) supplemented with 15% BIT 9500 serum substitute (Stem Cells Technologies, Grenoble, France), α-monothioglycerol (Sigma-Aldrich, Saint-Quentin Fallavier, France) and liposomes (phosphatidyl-choline, cholesterol and oleic acid; SigmaAldrich). Human recombinant stem cell factor (SCF, 20 ng/mL; Miltenyi Biotec) and thrombopoietin peptide agonist AF13948 (TPO, 50 nM) (see Dunois-Lardé et al, “Exposure of human megakaryocytes to high shear rates accelerates platelet production”, Blood, vol. 114, no 9, p. 1875-1883, 2009) were added once at day 0 to the culture medium followed by addition of 20 nM TPO without SCF at day 5. Mature megakaryocytes are obtained after 12-14 days of culture. Removal of platelets formed during culture and immediately prior to shear exposure was performed by means of a BSA gradient according to the methods reported in (Robert A, Cortin V, Gamier A, Pineault N. Megakaryocyte and platelet production from human cord blood stem cells. Methods Mol Biol. 2012; 788: 219-47). The concentration was then adjusted to 200 000 megakaryocytes/mL. 10 μM ROCK inhibitor (Y27632, Sigma Aldrich, Saint Quentin Fallavier, France) may be added to the culture of megakaryocytes at day 8 of culture. Addition of 10 μM ROCK inhibitor was performed before introducing megakaryocytes suspension into the inlet chamber of the microfluidic device. 6.25 μM nicotinamide (N0636, Sigma Aldrich, Saint Quentin Fallavier, France) was added to the culture of megakaryocytes at day 8 of culture. Addition of 6.25 μM nicotinamide was performed before introducing megakaryocyte suspension into the inlet chamber of the microfluidic device. 20 μM blebbistatin (203390, Calbiochem) was added to the culture of megakaryocytes at day 8 of culture. Addition of 20 μM blebbistatin was performed before introducing megakaryocyte suspension into the inlet chamber of the microfluidic device. 10 μM latrunculin-A (sc202691, Santa Cruz Biotechnology) was added to the culture of megakaryocytes at day 8 of culture. Addition of 10 μM latrunculin-A was performed before introducing megakaryocyte suspension into the inlet chamber of the microfluidic device. 25 μM GM6001 (ab120845, Abcam) was added to the culture of megakaryocytes at day 8 of culture. Addition of 25 μM GM6001 was performed before introducing megakaryocyte suspension into the inlet chamber of the microfluidic device
Platelet production in the microfluidic device of geometry 2 was compared to control samples, consisting of platelet production from twenty-four hours static condition without the microfluidic chip. Expression of CD41 and CD42 antigens was characterized using a flow cytometer BD Fluorescence Accuri C6 ® (BD Biosciences, Le Pont de Claix, France). Platelets were incubated with fluorescein isothiocyanate (FITC)-conjugated anti-human CD41 (αIIb), R-phycoerythrin (PE)-conjugated anti-human CD42b (GPIbα) (both from Beckman Coulter, Villepinte, France) and FITC-conjugated anti-human activated αIIbb3 (BD Biosciences) during 15 minutes at 22° C., Controls were performed using FITC mouse IgG1 (Beckman Coulter), PE mouse IgG1 (Beckman Coulter). Single color flow cytometry analysis of platelet receptors was performed using the GP screen assay (Biocytex, Marseille, France). […]
(In general: In flow cytometry, cells or beads pass a laser one at a time.)

Assay [2] has as its system megakaryocytes. As to the kind of experiment: Megakaryocyte capture and elongation in the microfluidic device (surface density of captured and elongated megakaryocytes). The class given is cell-based, human. The following applies: for elongation process and beads-on-a-thread structure formation: compound added to megakaryocyte suspension during perfusion (10 μM ROCK inhibitor; 6.25 μM nicotinamide). As for the experimental part:
as §1
All the devices are composed of 16 parallel channels organized in a serpentine shape (FIG. 16). The channels were textured on the straight parts (13.2 cm long) and patterned with the parameters: r=15 μm, H=50 μm, H/h=1.
The microfluidic chip was set on the stage of an inverted microscope (DMI6000 B, Leica Microsystems GmbH, Germany). A computer assisted motorized stage control was used to record positions along the channel length. We recorded observation field positions and alternated recording images between them along the experiment time. Differential interference contrast objective was used to record movies and images between 10× and 40×. A CMOS high-speed camera (Fastcam SA3, Photron, USA) was used to record images at frequencies from 0.5 to 1500 Hz.
Surface captured cells were counted manually from the recorded channel images, and cells in suspension were counted with a hematocytometer.

For assay [3], the system named is platelets produced from megakaryocytes. Nature of the assay: Activation of produced platelets by TRAP-6 (PAC1 binding, fibrinogen adhesion, tubulin/actin immunofluorescence). The assay is classed as cell-based, human.
Description: Image acquisition was performed with an Axio Observer microscope (Zeiss) at 40×1.6-fold magnification with a QIClick-F-CLR-12 Digital CCD Camera (Q Imaging). Platelets are adherent to fibrinogen.
FIG. 8 is a picture showing two colors flow cytometry analysis of platelets receptors with or without activation of the CD41/CD61 receptor by the agonist peptide of the PAR-1 thrombin receptor (TRAP6). (A) Histogram indicates, within the platelet gate, the % of PAC-1/CD42b positive elements before (black bars) or after (gray bars) TRAP-6 activation of platelets produced in the microfluidic device from megakaryocytes suspension in the absence (+/+2 h) or the presence (+/+2 h Ri) of ROCK inhibitor (Ri). […] No Ri was added during the culture stage. n=1.
Platelet production in the microfluidic device of geometry 2 was compared to control samples, consisting of platelet production from twenty-four hours static condition without the microfluidic chip. Expression of CD41 and CD42 antigens was characterized using a flow cytometer BD Fluorescence Accuri C6 ® (BD Biosciences, Le Pont de Claix, France). […] The number of antigenic sites is determined by converting the fluorescence intensity into corresponding numbers of monoclonal antibodies bound per platelet based on a calibrated bead standard curve. […]
The subject of assay [4] is megakaryocytes. As to the kind of experiment: Platelet release in the microfluidic device after two hours of perfusion, hemocytometer counting. The class given is cell-based, human. To be noted: compound in suspension during 2 h perfusion stage, absent during culture stage (10 μM ROCK inhibitor; 6.25 μM nicotinamide). The protocol:
CD34^+ cells were isolated from human umbilical cord blood (UCB) by an immunomagnetic technique (Miltenyi Biotec, Paris, France) as previously reported (see Poirault-Chassac et al, “Notch/Delta4 signaling inhibits human megakaryocytic terminal differentiation”, Blood, vol. 116, no 25, p. 5670-5678, 2010). These blood samples were obtained after informed consent and approval from our Institute Ethics Committee and in accordance with the Declaration of Helsinki. CD34^+ cells were cultured in a humid atmosphere at 37° C. in 5% CO2 in complete medium consisting of Iscove modified Dulbecco medium (IMDM; Gibco Life Technologies, Saint-Aubin, France) supplemented with 15% BIT 9500 serum substitute (Stem Cells Technologies, Grenoble, France), α-monothioglycerol (Sigma-Aldrich, Saint-Quentin Fallavier, France) and liposomes (phosphatidyl-choline, cholesterol and oleic acid; SigmaAldrich). Human recombinant stem cell factor (SCF, 20 ng/mL; Miltenyi Biotec) and thrombopoietin peptide agonist AF13948 (TPO, 50 nM) (see Dunois-Lardé et al, “Exposure of human megakaryocytes to high shear rates accelerates platelet production”, Blood, vol. 114, no 9, p. 1875-1883, 2009) were added once at day 0 to the culture medium followed by addition of 20 nM TPO without SCF at day 5. Mature megakaryocytes are obtained after 12-14 days of culture. […]

Assay [5] deals with megakaryocytes. The following applies: cited from earlier work; for megakaryocyte ploidy / polyploidization: culture conditions, literature.
Setting [6] is: channels coated at 40 μg·mL^−1, t=35 min, ROCK inhibitor in culture (day 8) and perfusion.
Where [7] appears, read: 10 μM ROCK inhibitor in suspension during perfusion, absent during culture stage, count after 35 min of perfusion.

As for `Cc1ccc2c(c1)C(=O)C1(O)CCN(c3ccccc3)C1=N2` (centres unmarked) [blebbistatin, 1-Phenyl-1,2,3,4-tetrahydro-4-hydroxpyrrolo[2,3-b]-7-methylquinolin-4-one], in assay [1], the “proportion of CD41+/CD42b+ platelet” value is on record as “higher”.
Turning to “VWF: Human von Willebrand factor, used as surface coating of the platelet production channel”, in the assay with megakaryocytes [2] (setting [6]), the “captured megakaryocytes density, VWF coating vs BSA coating” value stood at 5.86±1 fold and the “elongated megakaryocytes density, VWF coating vs BSA coating” value stood at 7.72±1.32 fold.
As for `CNC(=O)[C@H](Cc1c[nH]c2ccccc12)NC(=O)[C@@H](CC(=O)NO)CC(C)C` [GM6001, N-[(2R)-2-(hydroxamidocarbonylmethyl)-4-methylpentanoyl]-L-tryptophan methylamide], the “proportion of platelet CD42b+” value in assay [1] (GM6001 during the culture as well as during the 2 hours perfusion stage) is on record as “increased”. Besides, the “proportion of platelets expressing CD42b receptor” value in assay [1] is recorded as “higher”.
For `O=S(=O)(c1cccc2c(O)nccc12)N1CCCNCC1` [ROCK inhibitor, 1-(1-Hydroxy-5-isoquinolinesulfonyl)homopiperazine], the “characteristics of produced platelets (CD61, CD42b, CD49b receptor density) vs platelets isolated from blood” value in assay [1] (ROCK inhibitor during 2 h perfusion, FIG. 6) is recorded as “comparable to those of natural platelets”. For the same molecule, the “proportion of platelets expressing CD42b receptor” value in assay [1] is given as “higher”. Also, the “tubulin conformation of produced platelets upon TRAP-6 stimulation” value in assay [3] (ROCK inhibitor during 2 h perfusion, platelets adherent to fibrinogen, FIG. 7) is “tubulin conformation typical of a transient activation”. The “conformation of the αIIbβ3 receptors (PAC1 binding) upon TRAP-6 stimulation” value in assay [3] (platelets from suspension with ROCK inhibitor, FIGS. 8 and 9) is listed as “activated conformation”. In addition, in the assay with megakaryocytes [4], the “platelet release vs suspension without compound” value is reported as “significant higher platelet release”. Also, in the assay with megakaryocytes [2] (setting [7]), the “captured megakaryocytes density, ROCK inhibitor added vs not added” value stood at 1.42±0.13 fold and the “elongated megakaryocytes density, ROCK inhibitor added vs not added” value came to 2.98±0.28 fold. Further, in the assay with megakaryocytes [2], the “elongation process and beads-on-a-thread structure formation” value is recorded as “No differences”.
As to `NC(=O)c1cccnc1` [nicotinamide, pyridine-3-carboxamide], in assay [1], the “proportion of CD41+/CD42b+ platelet” value is “higher”. The “platelet release vs suspension without compound” value in the assay on megakaryocytes [4] is reported as “higher platelet release”. For the same molecule, the “elongation process and beads-on-a-thread structure formation” value with megakaryocytes [2] is recorded as “No differences”. In addition, the “megakaryocyte ploidy / polyploidization” value in the assay with megakaryocytes [5] was “increases”.
Regarding `C/C1=C/C(=O)O[C@@H]2C[C@@H](CC[C@H](C)/C=C\C=C\CC1)O[C@@](O)([C@@H]1CSC(=O)N1)C2` [latrunculin, Latrunculin A], the “proportion of CD41+/CD42b+ platelet” value in assay [1] is given as “higher”. The “megakaryocyte ploidy / polyploidization” value in the assay on megakaryocytes [5] is reported as “increase”. The megakaryocyte apoptosis activation result in the assay with megakaryocytes [5] (literature (Avanzi et al)) is “increase”.
